Test results as given in patent publication US10745382B2 (BRISTOL-MYERS SQUIBB COMPANY, priority 2015, dated 2020).

What follows are compounds tested against T1, PD-1/PD-L1 (Homo sapiens, UniProt Q9NZQ7) (assay: PD-1/PD-L1 Homogenous Time-Resolved Fluorescence (HTRF) binding assay). Conditions: PD-L1-His 10 nM, PD-1-Ig 20 nM; value given as range class; read-out: Range or IC50.
T1 construct: made in house; host or cells: HEK293T
T1 sequence (Q9NZQ7 with tags, fused parts or gaps): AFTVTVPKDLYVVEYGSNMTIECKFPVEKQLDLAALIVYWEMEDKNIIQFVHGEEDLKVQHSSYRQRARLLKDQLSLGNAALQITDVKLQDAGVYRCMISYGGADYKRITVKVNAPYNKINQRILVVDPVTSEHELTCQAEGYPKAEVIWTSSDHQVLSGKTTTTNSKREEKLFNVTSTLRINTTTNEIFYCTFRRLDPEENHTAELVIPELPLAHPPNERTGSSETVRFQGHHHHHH
In short: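 Read-out is time-resolved FRET between europium cryptate-labelled anti-Ig (1 nM final) and APC-labelled anti-His (20 nM final), both dispensed onto the binding mix. Assay buffer: dPBS containing 0.1% bovine serum albumin and 0.05% Tween-20.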
`Cc1c(COc2cc(OCc3cncc(C#N)c3)c(CN[C@@](C)(CO)C(=O)O)cc2Cl)cccc1-c1cccc(OCC2(CN3CC[C@@H](O)C3)CC2)c1C` [Example 2348, (S)-2-((5-chloro-2-((5-cyanopyridin-3-yl)methoxy)-4-((3′-((1-(((R)-3-hydroxypyrrolidin-1-yl)methyl)cyclopropyl)methoxy)-2,2′-dimethyl-[1,1′-biphenyl]-3-yl)methoxy)benzyl)amino)-3-hydroxy-2-methylpropanoic Acid] showed an IC50 of 0.21 to 10 nM.
With `Cc1c(COc2cc(OCc3cncc(C#N)c3)c(CN3CCCC[C@H]3C(=O)O)cc2Cl)cccc1-c1cccc(OCCCN2CCCC(CO)C2)c1C` (stereo partly drawn) [Example 2206, (2S)-1-(5-chloro-2-((5-cyanopyridin-3-yl)methoxy)-4-((3′-(3-(3-(hydroxymethyl)piperidin-1-yl)propoxy)-2,2′-dimethylbiphenyl-3-yl)methoxy)benzyl)piperidine-2-carboxylic Acid] the IC50 was 0.21 to 10 nM.
Compound `Cc1c(COCCN2CC[C@@H](O)C2)cccc1-c1cccc(COc2cc(OCc3cncc(C#N)c3)c(CN(C)[C@@H](CO)C(=O)O)cc2Cl)c1C` [Example 4130, N-(5-chloro-2-((5-cyanopyridin-3-yl)methoxy)-4-((3′-((2-((R)-3-hydroxypyrrolidin-1-yl)ethoxy)methyl)-2,2′-dimethyl-[1,1′-biphenyl]-3-yl)methoxy)benzyl)-N-methyl-L-serine] has an IC50 of 0.21 to 10 nM.
Work on `Cc1c(COc2cc(OCc3cncc(C#N)c3)c(CN3CCCC[C@H]3C(=O)O)cc2Cl)cccc1-c1cccc(OCCCN2CC[C@@H](F)C2)c1C` [Example 3057, (S)-1-(5-chloro-2-((5-cyanopyridin-3-yl)methoxy)-4-((3′-(3-((R)-3-fluoropyrrolidin-1-yl)propoxy)-2,2′-dimethyl-[1,1′-biphenyl]-3-yl)methoxy)benzyl)piperidine-2-carboxylic Acid] yielded an IC50 of 0.21 to 10 nM.
`Cc1c(COc2cc(OCc3cncc(C#N)c3)c(CNC(C)(CO)CO)cc2Cl)cccc1-c1cccc(OCCCN2CCCC(CO)C2)c1Cl` (stereo not shown) [Example 2098, 5-((4-chloro-5-((2′-chloro-3′-(3-(3-(hydroxymethyl)piperidin-1-yl)propoxy)-2-methyl-[1,1′-biphenyl]-3-yl)methoxy)-2-(((1,3-dihydroxy-2-methylpropan-2-yl)amino)methyl)phenoxy)methyl)nicotinonitrile] gave an IC50 of 0.21 to 10 nM.
In the case of `Cc1c(COc2cc(OCc3cncc(C#N)c3)c(CNC(CO)CO)cc2Cl)cccc1-c1cccc(C(=O)N2CCCC2)c1C` [Example 4038, 5-((4-chloro-2-(((1,3-dihydroxypropan-2-yl)amino)methyl)-5-((2,2′-dimethyl-3′-(pyrrolidine-1-carbonyl)-[1,1′-biphenyl]-3-yl)methoxy)phenoxy)methyl)nicotinonitrile], the IC50 is reported as 10 to 100 nM.
With `Cc1c(COc2cc(OCc3cncc(C#N)c3)c(CN3CCCC[C@H]3C(=O)O)cc2Cl)cccc1-c1cccc(OCCCN(C)Cc2cccnc2)c1C` [Example 2226, (2S)-1-(5-chloro-2-((5-cyanopyridin-3-yl)methoxy)-4-((2,2′-dimethyl-3′-(3-(methyl(pyridin-3-ylmethyl)amino)propoxy)biphenyl-3-yl)methoxy)benzyl)piperidine-2-carboxylic Acid] the IC50 was 0.21 to 10 nM.
Work on `CCC[C@H](NCc1cc(Cl)c(OCc2cccc(-c3cccc(OCCCN4CC[C@@H](O)C4)c3C)c2C)cc1OCc1cncc(C#N)c1)C(=O)O` [Example 4154, (S)-2-((5-chloro-2-((5-cyanopyridin-3-yl)methoxy)-4-((3′-(3-((R)-3-hydroxypyrrolidin-1-yl)propoxy)-2,2′-dimethyl-[1,1′-biphenyl]-3-yl)methoxy)benzyl)amino)pentanoic Acid] yielded an IC50 of 0.21 to 10 nM.
`Cc1c(COc2cc(OCc3cncc(C#N)c3)c(CN3CCCC[C@H]3C(=O)O)cc2Cl)cccc1-c1cccc(OCCCN2CCC(O)(CC(=O)O)C2)c1C` (mixture of isomers) [Example 1519, (2S)-1-(4-((3′-(3-(3-(carboxymethyl)-3-hydroxypyrrolidin-1-yl)propoxy)-2,2′-dimethyl-[1,1′-biphenyl]-3-yl)methoxy)-5-chloro-2-((5-cyanopyridin-3-yl)methoxy)benzyl)piperidine-2-carboxylic acid] showed an IC50 of 0.21 to 10 nM.
`Cc1c(CCCCN2CC[C@@H](O)C2)cccc1-c1cccc(COc2cc(OCc3cncc(C#N)c3)c(CN[C@@H](CN)C(=O)O)cc2Cl)c1C` [Example 4069, (S)-3-amino-2-((5-chloro-2-((5-cyanopyridin-3-yl)methoxy)-4-((3′-(4-((R)-3-hydroxypyrrolidin-1-yl)butyl)-2,2′-dimethyl-[1,1′-biphenyl]-3-yl)methoxy)benzyl)amino)propanoic Acid] gave an IC50 of 0.21 to 10 nM.
`CCN(Cc1cc(Cl)c(OCc2cccc(-c3cccc(OCCCN4CC[C@@H](O)C4)c3Cl)c2C)cc1OCc1cncc(C#N)c1)[C@](C)(CO)C(=O)O` [Example 2072, (R)-2-((5-chloro-4-((2′-chloro-3′-(3-((R)-3-hydroxypyrrolidin-1-yl)propoxy)-2-methyl-[1,1′-biphenyl]-3-yl)methoxy)-2-((5-cyanopyridin-3-yl)methoxy)benzyl)(ethyl)amino)-3-hydroxy-2-methylpropanoic Acid] gave an IC50 of 0.21 to 10 nM.
`CCC(CO)(CO)NCc1cc(Cl)c(OCc2cccc(-c3cccc(OCCCN4CC[C@@H](O)C4)c3C)c2C)cc1OCc1cncc(C#N)c1` [Example 2280, (R)-5-((4-chloro-2-(((1-hydroxy-2-(hydroxymethyl)butan-2-yl)amino)methyl)-5-((3′-(3-(3-hydroxypyrrolidin-1-yl)propoxy)-2,2′-dimethyl-[1,1′-biphenyl]-3-yl)methoxy)phenoxy)methyl)nicotinonitrile] was tested, and the IC50 was 0.21 to 10 nM.
`Cc1c(CCCCN2CC[C@@H](O)C2)cccc1-c1cccc(COc2cc(OCc3cncc(C#N)c3)c(CNC(CO)CO)cc2Cl)c1C` [Example 4064, (R)-5-((4-chloro-2-(((1,3-dihydroxypropan-2-yl)amino)methyl)-5-((3′-(4-(3-hydroxypyrrolidin-1-yl)butyl)-2,2′-dimethyl-[1,1′-biphenyl]-3-yl)methoxy)phenoxy)methyl)nicotinonitrile] showed an IC50 of 0.21 to 10 nM.
For `Cc1c(COc2cc(OCc3cncc(C#N)c3)c(CN3CCCC[C@H]3C(=O)O)cc2Cl)cccc1-c1cccc(OCCCN2CCCCC2C(N)=O)c1C` (stereo partly drawn) [Example 2244, (2S)-1-(4-((3′-(3-(2-carbamoylpiperidin-1-yl)propoxy)-2,2′-dimethylbiphenyl-3-yl)methoxy)-5-chloro-2-((5-cyanopyridin-3-yl)methoxy)benzyl)piperidine-2-carboxylic Acid], the IC50 was 0.21 to 10 nM.
For `Cc1c(COc2cc(OCc3cncc(C#N)c3)c(CN(CCO)CCCO)cc2Cl)cccc1-c1cccc(OCCCN2CCC(F)(F)C2)c1C` [Example 4113], the IC50 was 0.21 to 10 nM.
`Cc1c(COc2cc(OCc3cncc(C#N)c3)c(CN3CCCC[C@H]3C(=O)O)cc2Cl)cccc1-c1cccc(OCCCN2CC3CC2CO3)c1C` (stereo partly drawn) [Example 2249, (2S)-1-(4-((3′-(3-(2-oxa-5-azabicyclo[2.2.1]heptan-5-yl)propoxy)-2,2′-dimethylbiphenyl-3-yl)methoxy)-5-chloro-2-((5-cyanopyridin-3-yl)methoxy)benzyl)piperidine-2-carboxylic Acid] was tested, and the IC50 was 0.21 to 10 nM.
`Cc1c(COc2cc(OCc3cncc(S(C)(=O)=O)c3)c(CN[C@](C)(CO)C(=O)O)cc2Cl)cccc1-c1cccc(OCCCN2CC[C@@H](C(=O)O)C2)c1C` [Example 1083, (R)-1-(3-((3′-((4-((((R)-2-carboxy-1-hydroxypropan-2-yl)amino)methyl)-2-chloro-5-((5-(methylsulfonyl)pyridin-3-yl)methoxy)phenoxy)methyl)-2,2′-dimethyl-[1,1′-biphenyl]-3-yl)oxy)propyl)pyrrolidine-3-carboxylic Acid] gave an IC50 of 0.21 to 10 nM.
`CNC(=O)c1cccc(-c2cccc(COc3cc(OCc4cc(F)cc(F)c4)c(CNC(C)(CO)CO)cc3Cl)c2C)c1C` [Example 4029, 3′-((2-chloro-5-((3,5-difluorobenzyl)oxy)-4-(((1,3-dihydroxy-2-methylpropan-2-yl)amino)methyl)phenoxy)methyl)-N,2,2′-trimethyl-[1,1′-biphenyl]-3-carboxamide] gave an IC50 of 10 to 100 nM.
With `Cc1c(COc2cc(OCc3cncc(C#N)c3)c(CN3CCCC[C@H]3C(=O)O)cc2Cl)cccc1-c1cccc(OCCCN2CCCCC2)c1C` [Example 2213, (2S)-1-(5-chloro-2-((5-cyanopyridin-3-yl)methoxy)-4-((2,2′-dimethyl-3′-(3-(piperidin-1-yl)propoxy)biphenyl-3-yl)methoxy)benzyl)piperidine-2-carboxylic Acid] the IC50 was 0.21 to 10 nM.
`Cc1c(COc2cc(OCc3cncc(S(C)(=O)=O)c3)c(CN[C@](C)(CO)C(=O)O)cc2Cl)cccc1-c1cccc(OCCCN2CC[C@@H](O)C2)c1C` [Example 1026, (R)-2-((5-chloro-4-((3′-(3-((R)-3-hydroxypyrrolidin-1-yl)propoxy)-2,2′-dimethyl-[1,1′-biphenyl]-3-yl)methoxy)-2-((5-(methylsulfonyl)pyridin-3-yl)methoxy)benzyl)amino)-3-hydroxy-2-methylpropanoic Acid] gave an IC50 of 0.21 to 10 nM.
For `Cc1c(COc2cc(OCc3cncc(C#N)c3)c(CN3CCCC[C@H]3C(=O)O)cc2Cl)cccc1-c1cccc(OCCCN2CCCCC2CC(=O)O)c1C` (stereo partly drawn) [Example 2251, (2S)-1-(4-((3′-(3-(2-(carboxymethyl)piperidin-1-yl)propoxy)-2,2′-dimethylbiphenyl-3-yl)methoxy)-5-chloro-2-((5-cyanopyridin-3-yl)methoxy)benzyl)piperidine-2-carboxylic Acid], the IC50 was 0.21 to 10 nM.
Compound `Cc1c(COc2cc(OCc3cncc(C#N)c3)c(CN3CCCC[C@H]3C(=O)O)cc2Cl)cccc1-c1cccc(OCCCN(C)C[C@H](O)CO)c1C` [Example 2332, (S)-1-(5-chloro-2-((5-cyanopyridin-3-yl)methoxy)-4-((3′-(3-(((S)-2,3-dihydroxypropyl)(methyl)amino)propoxy)-2,2′-dimethyl-[1,1′-biphenyl]-3-yl)methoxy)benzyl)piperidine-2-carboxylic Acid] has an IC50 of 0.21 to 10 nM.
